Reference: a melting point compilation (Tetko et al.; mined from patent text by program, amines drawn as free bases though some values may be those of a salt)

First: CC(=O)c1ccc2c(c1)S(=O)(=O)c1cc(C(C)=O)ccc1O2
Second: CC(=O)c1ccc(OCn2cc(Cl)cnc2=O)cc1
The melting point of the first is higher: 219 to 220 °C for the first, 182 °C for the second.

Compared with OC(c1ccccc1)c1ccc2nc3ccc(C(O)c4ccccc4)cc3c(-c3ccccc3)c2c1 (centres undefined), CN(C)c1c(-c2ccc(-c3ccccc3)cc2)nc2ccc(F)cc2c1C(=O)O is lower in melting point: over 280 °C for the first, 235 to 239 °C for the second.

First: CCOc1nc(NCc2ccco2)nc(N2CCN(Cc3ccccn3)CC2)n1
Second: c1ccc2c(c1)CC(CN1CCN(c3ccc4ccoc4c3)CC1)C2
The melting point of the first is lower: 115 to 117 °C for the first, 168 to 170 °C for the second.

First: CC(C)(C)OC(=O)COc1cc(NC(=O)OC(C)(C)C)c([N+](=O)[O-])cc1-c1ccc(F)cc1
Second: CC(=O)Nc1ccc(OCCN2CCc3ccc([N+](=O)[O-])cc3CC2)cc1C
The melting point of the first is lower: 92 to 93 °C for the first, 132 to 134 °C for the second.

First: CC(C#CC1CCC(Oc2ccc(F)cc2)C1)N(O)C(N)=O (centres undefined)
Second: CC(C)(C)OC(=O)NC1CCN(c2ccc(C#N)cc2)CC1
The melting point of the first is lower: 95.6 to 96.7 °C for the first, 188 to 189 °C for the second.

First: COC(=O)N=c1[nH]c2ccccc2n1C1CCN(Cc2ccccc2)CC1
Second: CCC1(CC(=O)O)OCC(Cc2ccccc2)c2c1[nH]c1ccccc21 (single isomer, unassigned; (-))
The melting point of the first is higher: 170 °C for the first, 142 to 143 °C for the second.

Compared with c1ccc2c(c1)Oc1ccccc1C2NCc1ccncc1, O=C1N[C@H](Cc2ccc(C(F)(F)F)cc2)[C@H](c2ccc(Oc3ccccc3)cc2)O1 (racemic) is higher in melting point: 83 to 85 °C for the first, 110 to 111 °C for the second.

First: O=C(O)c1snc(-c2cc(C(F)(F)F)cc(C(F)(F)F)c2)c1C(=O)O
Second: COc1cc(NC(=O)c2cc(C(C)C)c(C(C)C)s2)ccc1C(=O)O
The melting point of the first is lower: 193 to 194 °C for the first, 213 to 214 °C for the second.

Compared with CCCCn1c(=O)c2c(NC)n[nH]c2n(CCNCc2ccccc2)c1=O, CCNC(=O)c1ccc(-n2nnc(C(=O)NC3CC3)c2CNCc2ccccc2)cc1 is lower in melting point: 198 to 200 °C for the first, 153 °C for the second.

First: CC1(C)CC(=C(c2ccc(O)cc2)c2ccc(CCO)cc2)CC(C)(C)C1
Second: O=c1cc(-c2ccc(CO)cc2)oc2ccc(O)cc12
The melting point of the first is lower: 159 to 160 °C for the first, 262 to 265 °C for the second.

Compared with CC(C)NC1=NS(=O)(=O)c2cccc(Cl)c2N1, OC(CNC1=NCCN1)c1ccc(Cl)c(Cl)c1 (centres undefined) is higher in melting point: 124 to 125 °C for the first, 148 °C for the second.

First: COC(=O)c1nn(-c2ccccc2)c2c1CCc1cc(Cl)ccc1-2
Second: O=C(c1cccc(Cl)c1)c1ccnc2ccccc12
The melting point of the first is higher: 190 to 192 °C for the first, 92.7 °C for the second.

First: CC(=NC#N)NC1=CC(C)(C)Oc2ccc(C#N)cc21
Second: Cc1cc2c(cc1-c1cccc(C#CC(=O)O)c1)C(C)(C)CCC2(C)C
The melting point of the first is higher: 205 to 206 °C for the first, 180 to 181 °C for the second.

First: CCCCC1N=CC(CSc2ccccc2C(=O)O)(Cc2ccc(C(=O)O)c3ccccc23)N1 (centres undefined)
Second: COCCn1nc2ccccc2c1C(=O)NCC1CCN(CCc2ccccc2F)CC1
The melting point of the first is higher: 272 to 274 °C for the first, 128 to 130 °C for the second.

First: COc1ccc(C=C2OC(=O)c3ccccc32)cc1N
Second: COc1ccc2c(c1)C(=O)c1ccccc1C2=O
The melting point of the first is lower: 148 to 153 °C for the first, 195 to 197 °C for the second.

First: COC(=O)C=Cc1ccc2c(c1)Cc1cc(C=CC(=O)OC)ccc1-2
Second: COc1cccc2c(Nc3ccc(C)c(O)c3)c(C#N)cnc12
The melting point of the first is higher: 206 to 209 °C for the first, 148 to 150 °C for the second.

Compared with CCOc1cccc(C(C)=O)n1, CCOC(=O)CCc1c[nH]c(-c2cccs2)c1 is higher in melting point: 36 to 37 °C for the first, 39 to 40 °C for the second.

First: COc1ccccc1-n1c(=O)[nH]c2c(C(N)=O)nc(-n3cnc4ccccc43)nc21
Second: COc1ccc(-c2ccccc2)cc1N1CCN(C(=O)Nc2cc3ccccc3nc2OC)CC1
The melting point of the first is higher: 318 to 319 °C for the first, 122 to 123 °C for the second.

First: NC(=O)c1cc2c(Oc3ccc(N)cc3)cncc2s1
Second: COc1ccc(-n2nc3c(cc2=O)CCSc2sccc2-3)cc1
The melting point of the first is higher: over 250 °C for the first, 126 to 128 °C for the second.

First: N#Cc1cn(Nc2c(Cl)cc(Cl)cc2Cl)c(=O)[nH]c1=O
Second: CN(C)CCOc1cc2c(Nc3ccc(F)c(Cl)c3)c(C#N)cnc2cn1
The melting point of the first is higher: over 320 °C for the first, 131 to 132 °C for the second.

First: CCOC(=O)Cc1csc(-c2cc3cccc(N(C)S(=O)(=O)c4cccs4)c3[nH]2)n1
Second: CCOC(=O)c1nc(-c2cccc3ccccc23)[nH]c1-c1ccc(C)cc1
The melting point of the first is lower: 117 to 118 °C for the first, 190 to 192 °C for the second.

First: CNC(=S)N(CCN1CCC(Nc2nc3ccccc3n2Cc2ccc(F)cc2)CC1)c1nccs1
Second: O=C(C1CCCCC1)N(CCN1CCN(CC(O)c2ccccc2)CC1)c1ccccn1 (centres undefined)
The melting point of the first is higher: 188 °C for the first, 140 to 142 °C for the second.

First: Cc1cccc2ncc(NC(=O)Nc3ccc(F)cc3F)c(-c3ccccc3Cl)c12
Second: COc1ccc(C(=O)Nc2cccnc2)c2c3cc(Cl)ccc3n(Cc3ccc(F)cc3)c12
The melting point of the first is lower: 218 to 220 °C for the first, 224 to 228 °C for the second.

First: CC1CCc2ccc(Cl)c3c(=O)c(C(=O)O)cn1c23 (centres undefined)
Second: CCOc1sc(C(=O)O)c2c1-c1c(cnn1C)CC2
The melting point of the first is lower: 220 to 222 °C for the first, 258 to 260 °C for the second.

First: O=C(N[C@@H]1CN(C2CCCCC2)C[C@H]1O)c1ccc([N+](=O)[O-])cc1 (relative stereo)
Second: COc1cc(C2CCCCC2)ccc1C(O)CCC(=O)O (centres undefined)
The melting point of the first is higher: 156 to 157 °C for the first, 105 to 106 °C for the second.

Compared with Cc1cccc2nc(-c3ccc(Cl)cc3)c(C(N)=O)c(=O)n12, COc1ccc2c(-c3ccc(Cl)cc3)noc2c1 is lower in melting point: 202 to 204 °C for the first, 148 to 149 °C for the second.

First: CN1CCC(O)(c2ccccc2CO)CC1
Second: CCc1cccc(CC)c1NC(=O)NCC1(c2ccccc2)CC1
The melting point of the first is lower: 118 to 119 °C for the first, 166 to 168 °C for the second.

First: CCCCCCCCCCCCC(=O)NN
Second: O=C(CCCCCBr)NC(C(=O)c1ccc(Cl)cc1)c1ccc(Cl)cc1 (centres undefined)
The melting point of the first is lower: 101 to 104 °C for the first, 105 °C for the second.

Compared with COc1ccc(COC(=O)CCc2nc(-c3ccc(Cl)cc3)co2)cc1, CCCCC(Cc1ccc(OCCCN(C)C(=O)c2ccc(-c3ccccn3)cc2)cc1)C(=O)O (centres undefined) is higher in melting point: 69 to 70 °C for the first, 110 to 112 °C for the second.

First: NC(=O)C(=O)Nc1nc(-c2oncc2-c2c(F)cccc2Cl)cs1
Second: Cc1c(C(=O)Nc2ccc(N3CCN(CCO)CC3)c(C#N)c2)cnn1-c1ccc(F)c(Cl)c1
The melting point of the first is higher: 235 to 237 °C for the first, 191 °C for the second.

Compared with COCCOc1ccc(/C=C/C(=O)O)c(OCC2CCCCC2)c1, COC(=O)[C@H]1CN(CCO)CC[C@H]1NC(=O)OCc1ccccc1 is lower in melting point: 112 °C for the first, 73 °C for the second.

First: Cc1cccc(CC(=O)O)c1OCCCc1cn(-c2ccc(C(F)(F)F)nn2)nc1C(C)(C)C
Second: CCc1nc2c(C)cc(C)nc2n1Cc1ccc(C(c2ccccc2C)C(C(=O)O)C(=O)O)cc1 (centres undefined)
The melting point of the first is lower: 96 to 97 °C for the first, 160 to 161 °C for the second.

First: Fc1ccc(-c2cc(CCOCc3ccccc3)cc(OCCCCCl)c2)cc1
Second: COc1cccc(-c2[nH]c3ccc(OCc4ccccc4)cc3c2C)c1
The melting point of the first is lower: 48 to 49 °C for the first, 107 to 109 °C for the second.

First: COc1cc(N)c(Cl)cc1C(=O)NC1CN(C)N(C)C1
Second: O=C1c2ccc(Cl)cc2OCN1CCO[N+](=O)[O-]
The melting point of the first is higher: 169 to 171 °C for the first, 86 to 88 °C for the second.

First: O=C(O)c1cccc2c1ccn2-c1ccnc(N[C@H]2CC[C@H](O)CC2)n1
Second: O=C(NNC(=O)c1ncnc2[nH]ccc12)OCc1ccccc1
The melting point of the first is higher: 259 to 261 °C for the first, 187 to 188 °C for the second.

Compared with CC(C(=O)O)c1ccc([N+](=O)[O-])c(CC(=O)O)c1 (centres undefined), CCC(CC)Nc1cc(C(=O)OC)ccc1N1C(=O)CCC1(CO)CO is higher in melting point: 169 to 171 °C for the first, 183 to 185 °C for the second.

First: Cn1c(=O)sc2cc(N)ccc21
Second: Cc1ccc(-c2cc3c(s2)CCCCC3=O)cc1
The melting point of the first is higher: 188 to 190 °C for the first, 82 to 84 °C for the second.

First: CN(C)Cc1ccc(Cc2cnc(N[N+](=O)[O-])[nH]c2=O)cn1
Second: O=[N+]([O-])c1ccc(OCCCCCOc2ccc([N+](=O)[O-])cc2)cc1
The melting point of the first is higher: 234 to 238 °C for the first, 101 to 102 °C for the second.

First: ClCCCOc1ccc(-n2ccnc2)cc1
Second: COc1ccc(-n2nc(Sc3cccc(OC)c3)c(C)c(C#N)c2=O)cc1
The melting point of the first is lower: 53 to 55 °C for the first, 143 to 144 °C for the second.

Compared with CN(CCn1ncc(-c2ccccc2)cc1=O)CC(O)c1ccc(NS(C)(=O)=O)cc1 (centres undefined), CC(=O)Nc1ccc(S(=O)(=O)N(CCCl)CCCl)cc1 is higher in melting point: 108 °C for the first, 113 to 114 °C for the second.

Compared with COC(=O)c1ccc(C(=O)Nc2sc3c(c2C(=O)NCc2ccc4c(c2)OCO4)CCCC3)cc1, O=C(O)c1c(Cl)cc(N2C(=O)N3CCCC3(Cc3ccc(Br)cc3)C2=O)cc1Cl (centres undefined) is higher in melting point: 138 °C for the first, 152 °C for the second.

First: CCc1c(OC)nc(OC)nc1C(C#N)c1cc(Cl)cc(Cl)c1 (centres undefined)
Second: COc1cc(Nc2cc(C(F)(F)F)nc(-c3cc(Cl)nc(Cl)c3)n2)cc(OC)c1
The melting point of the first is higher: 121 to 122 °C for the first, 109 to 110 °C for the second.

First: N#CCc1cccc(Cc2nc3c(F)c(F)cc(F)c3s2)c1Cl
Second: O=C(O)C(Cc1ccccc1F)Cc1ccccc1F
The melting point of the first is higher: 148 to 151 °C for the first, 110 to 111 °C for the second.

First: NC(=O)c1csc(C2OC(CO)C(O)C2O)n1 (centres undefined)
Second: CC(=O)NCC1CN(c2cc(F)c(N3CCC(n4ccnn4)C(F)C3)c(F)c2)C(=O)O1 (centres undefined)
The melting point of the first is lower: 142 to 144 °C for the first, 176 to 178 °C for the second.

Compared with FC(F)(F)c1cccc2c1Sc1ccccc1NC2=S, O=C1NN=C(c2ccc3[nH]c(-c4ccncc4)cc3c2)CO1 is higher in melting point: 265 to 267 °C for the first, 322 to 325 °C for the second.

First: C=CCOc1ccccc1C=C(C=O)C(C=O)=Cc1ccccc1OCC=C
Second: COc1ccc(C(=O)Nc2ccccc2)cc1NC(=NC#N)Nc1cc(Cl)cc(Cl)c1
The melting point of the first is lower: 117 to 118 °C for the first, 225 to 227 °C for the second.

First: CC#CCOc1ccc(C(=O)NC[C@@H](C(=O)NO)N2CCN(S(C)(=O)=O)CC2)cc1
Second: CN1C(=O)SC(C)(C)[C@@H]1[C@@H](CS(=O)(=O)c1ccc(Oc2ccc(OC(F)(F)F)cc2)cc1)N(O)C=O
The melting point of the first is higher: 127 °C for the first, 84 to 86 °C for the second.

Compared with CCCCc1nc2c(N)nc3cc(Br)ccc3c2n1CC(C)C, C#CCCc1c(C)c(OC)c(C)c(C)c1OC is lower in melting point: 198 to 200 °C for the first, 54 °C for the second.

Compared with CC(C)(C)c1nc2cc(N3CCNCC3)c([N+](=O)[O-])cc2s1, Cc1nc(-c2ccccc2)nc2sc3c(N4CCNCC4)nc(Cl)nc3c12 is higher in melting point: 144 to 146 °C for the first, over 310 °C for the second.

In the case of CCOP(=O)(Cc1cc2c(cc1CP(=O)(OCC)OCC)C(CC)(CC)N(Cc1ccccc1)C2(CC)CC)OCC, the melting point is reported as 81 to 83 °C.
